# Measurements from patent publication US20240122938A1, “METHODS AND COMPOSITIONS FOR TREATING UVEAL MELANOMA” (INSERM (INSTITUT NATIONAL DE LA SANTÉ ET DE LA RECHERCHE …, priority 2019, published 2024).
# Assays:
# [1] = tested on: metastatic cell lines; assay: Colony formation assay; assay type: cell-based, human; conditions: metastatic versus primary cell lines; data not shown
# Protocol: Human uveal melanoma cells were seeded onto 6-well plates. The cells were subsequently placed in a 37° C., 5% C02 incubator. Colonies of cells were grown before being stained with 0.04% crystal violet/2% ethanol in PBS for 30 min. Photographs of the stained colonies were captured. The colony formation assay was performed in duplicate.
# [2] = Body weight and blood biochemical analysis of xenografted mice; assay type: in vivo
# Protocol: (§1) FIG. 3. ABT-263 reduces tumor growth in vivo. (A) Primary 92.1 uveal melanoma cells were subcutaneously engrafted into athymic nude mice. Once the tumours reached 100 mm3, mice were treated daily with ABT-263. The arrow indicates the start of the treatment. The growth tumor curves were determined by measuring the tumor volume using the equation V=(L Å˜W2)/2. […] (B) Sub-cutaneous tumor weight from control (Ct) and ABT-263-treated mice is shown. (C) Blood biochemical analysis of mice xenografted with OMM1 cells. Serum activity of alanine transaminase (ALT) and aspartate transaminase (AST) was measured in control and ABT-263 by spectrophotometric methods after the end of treatment. Data are presented as mean±SD (n=5 per group). Animal experiments were performed in accordance with French law and approved by a local institutional ethical committee. The animals were maintained in a temperature-controlled facility (22° C.) on a 12-h light/dark cycle and provided free access to food (standard laboratory chow diet from UAR, Epinay-S/Orge, France). Human Mel270 uvealmelanoma cells were subcutaneously inoculated into 8-week-old female, immune-deficient, athymic, nude FOXN1nu mice (Harlan Laboratory). When the tumors became palpable (0.1-0.2 cm3), the mice received an intraperitoneal injection of ABT-263 (50 mg/kg), dissolved in 10% DMSO 6 times per week. Control mice were injected with DMSO alone. The growth tumor curves were determined after measuring the tumor volume using the equation V=(L×W2)/2. At the end of the experiment, the mice were euthanized by cervical dislocation.
# [3] = tested on: metastatic OMM1 xenografts; assay: Subcutaneous tumor xenograft; assay type: in vivo, athymic nude mice
# Protocol: (§2) FIG. 2. Effect of ABT-263 on tumor growth in vivo effects. (A) Primary Mel270 and (B) metastatic OMM1 uveal melanoma cells were subcutaneously engrafted into athymic nude mice. Once the tumours reached 100 mm3, mice were treated daily with ABT-263. The arrow indicates the start of the treatment. The growth tumor curves were determined by measuring the tumor volume using the equation V=(L Å˜W2)/2. […] (C-D) Sub-cutaneous tumor weight from control (Ct) and ABT-263-treated mice is shown. Animal experiments were performed in accordance with French law and approved by a local institutional ethical committee. The animals were maintained in a temperature-controlled facility (22° C.) on a 12-h light/dark cycle and provided free access to food (standard laboratory chow diet from UAR, Epinay-S/Orge, France). Human Mel270 uvealmelanoma cells were subcutaneously inoculated into 8-week-old female, immune-deficient, athymic, nude FOXN1nu mice (Harlan Laboratory). When the tumors became palpable (0.1-0.2 cm3), the mice received an intraperitoneal injection of ABT-263 (50 mg/kg), dissolved in 10% DMSO 6 times per week. Control mice were injected with DMSO alone. The growth tumor curves were determined after measuring the tumor volume using the equation V=(L×W2)/2. At the end of the experiment, the mice were euthanized by cervical dislocation.
# [4] = tested on: Mel270 xenografts; assay: Subcutaneous tumor xenograft; assay type: in vivo, athymic nude mice; conditions: established Mel270 xenografts; 50 mg/kg intraperitoneal
# Protocol: as §2
# [5] = tested on: 92.1 uveal melanoma cells xenografts; assay: Subcutaneous tumor xenograft; assay type: in vivo, athymic nude mice; conditions: 92.1 xenografts
# Protocol: as §1, with “When the tumors became palpable (0.1-0.2 cm3), the mice received an intraperitoneal injection of ABT-263 (50 mg/kg), dissolved in 10% DMSO 6 times per week. Control mice were injected with DMSO alone.” left out, “At the end of the experiment, the mice were euthanized by cervical dislocation.” left out
# [6] = tested on: XBP1 splicing; assay: XBP1 splicing (QRT-PCR); assay type: cell-based, human; conditions: both primary cells and metastatic OMM1 cells
# Protocol: The mRNA was isolated using TRIzol (Invitrogen) according to a standard procedure. QRT-PCR was performed using SYBR® Green I (Eurogentec, Seraing, Belgium) and Multiscribe Reverse Transcriptase (Applied Biosystems) and subsequently monitored using the ABI Prism 7900 Sequence Detection System (Applied Biosystems, Foster City, CA). The detection of the SB34 gene was used to normalize the results. Spliced Xbp1 primers were previously reported27. Primer sequences for each cDNA were designed using either Primer Express Software (Applied Biosystems) or qPrimer depot (http://primerdepot.nci.nih.gov), and these sequences are available upon request.
# [7] = tested on: PARP, caspase 9 and caspase 3 in primary and metastatic uveal melanoma cells; assay: Western blot of PARP and caspases; assay type: cell-based, human
# [8] = single agent, phase I/II; cited from earlier work
# [9] = tested on: Mel270 cells; assay: Cell death / alive cells by Annexin V/DAPI FACS; assay type: cell-based, human
# Protocol: FIG. 5: PERK dampens ABT-263 killing activity. (A) Q-PCR analysis of PERK level in Mel270 uveal melanoma cells treated with control (siCtl) or PERK (siPERK) siRNA for 48 hr. (B) Mel270 cells were treated with control (siCtl) or PERK (siPERK) siRNA for 48 hrs before being exposed to ABT-263 3 μM for 48 hr. FACS analyses of Annexin V/DAPI double staining in […] indicate alive (white) or dead (early, late apoptosis and necrosis in light grey) cells. (C) Mel270 cells were treated with ABT-263 5 μM or GSK2606414 5 μM alone or in combination for 48 h.
# Cells were seeded at a density of 100 000 cells/well, in 6-well plate and treated with ABT-263 for indicated time. Cells were harvested using accutase enzyme, washed twice with ice-cold phosphate-buffered saline, resuspended in a buffer (Hepes 250 mM, NaCl 150 mM, KCl 5 mM, MgCl2 2 mM, CaCl2) 2 mM) with DAPI (1 μg/ml) and Annexin V-Alexa Fluor 647 conjugate (1/100) and incubated for 15 minutes at room temperature (25° C.) in the dark. Samples were immediately analyzed by a flow cytometer (MACS QUANT) using a laser at 405 nm excitation with a bandpass filter at 425 nm and 475 nm for DAPI detection and a laser at 635 nm excitation with a bandpass filter at 650 nm and 665 nm for Alexa Fluor 647 dye. Annexin and DAPI mono- or double positive cells were counted as dead cells.
# [10] = OMM1-xenografted mice, after end of treatment
smiles,measurement,setting,value
"CC1(C)CCC(c2ccc(Cl)cc2)=C(CN2CCN(c3ccc(C(=O)NS(=O)(=O)c4ccc(N[C@H](CCN5CCOCC5)CSc5ccccc5)c(S(=O)(=O)C(F)(F)F)c4)cc3)CC2)C1 [ABT-263, 4-[4-[[2-(4-chlorophenyl)-5,5-dimethyl-1-cyclohexen-1-yl]methyl]-1-piperazinyl]-N-[[4-[[(1R)-3-(4-morpholinyl)-1-[(phenylthio)methyl]propyl]amino]-3-[(trifluoromethyl)sulfonyl]phenyl]sulfonyl]-benzamide]",long-term growth inhibitory activity (colony formation),[1],more sensitive
same,serum alanine transaminase (ALT) versus vehicle,[2]; [10],no significant differences
same,serum aspartate transaminase (AST) versus vehicle,[2]; [10],no significant differences
same,hepatotoxicity,[2]; in vivo conditions,no hepatotoxicity
same,body weight versus vehicle,"[2]; xenografted mice, data not shown",no significant differences
same,excised tumor weight versus control group,[3]; end of experiment,weighed significantly less
same,tumor growth,"[3]; metastatic OMM1 xenografts, in some mice total tumor disappearance",marked tumor regression
same,tumor growth,[4],partially effective
same,tumor growth,[5],almost no effect
same,XBP1 splicing,[6],significantly higher
same,"cleavage of PARP, caspase 9 and caspase 3",[7]; primary and metastatic cells,dose-dependent cleavage
same,full-length PARP protein and caspase 3 zymogen,"[7]; time course, data not shown",time-dependent disappearance
same,side effects,[8],thrombocytopenia
same,cell death,[9]; ABT-263 3 μM,do not induce cell death
same,"PARP cleavage and alive cell percentage, used alone",[9]; ABT-263 3 μM 48 hr,relative low effect
same,ABT-263 effect on viable cells combined with GSK2606414,"[9]; ABT-263 5 μM + GSK2606414 5 μM, 48 h",improved
same,ABT-263 effects and killing efficacy combined with PERK siRNA,[9]; siPERK 48 hrs then ABT-263 3 μM 48 hr,significantly improved
